The target in this experiment is T1, BTK (Homo sapiens, UniProt Q06187).
T1 construct: endogenous in cells; host or cells: TMD-8 cells
Briefly: BTK degradation in TMD-8 cells, HTRF assay after 6 h treatment. The format is cell-based. The settings on record: for DC50: IC50 (DC50) of BTK degradation; for Dmax: TMD8, maximum percentage of inhibition (degradation). The method in brief: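 TMD-8 cells treated for 6 h with 8 compound doses in 6-fold dilution steps from a 1 mM 500× DMSO stock (0.2% DMSO), then lysed 30 min at room temperature. BTK in lysate detected by HTRF (665/620 nm) after overnight antibody incubation; DC50 from four-parameter curve fit.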
(In TR-FRET formats the signal depends on donor and acceptor labels being close together.)

DC50 and Dmax data for 18 compounds are collected here from patent US20230322761A1, “DEGRADATION OF BRUTON'S TYROSINE KINASE (BTK) BY CONJUGATION OF BTK INHIBITORS WITH E3 LIGASE LIGAND AND METHODS OF USE” (BEIGENE, LTD., priority 2020, published 2023).

Molecules are shown by their SMILES.

T1 sequence (Q06187 whole entry): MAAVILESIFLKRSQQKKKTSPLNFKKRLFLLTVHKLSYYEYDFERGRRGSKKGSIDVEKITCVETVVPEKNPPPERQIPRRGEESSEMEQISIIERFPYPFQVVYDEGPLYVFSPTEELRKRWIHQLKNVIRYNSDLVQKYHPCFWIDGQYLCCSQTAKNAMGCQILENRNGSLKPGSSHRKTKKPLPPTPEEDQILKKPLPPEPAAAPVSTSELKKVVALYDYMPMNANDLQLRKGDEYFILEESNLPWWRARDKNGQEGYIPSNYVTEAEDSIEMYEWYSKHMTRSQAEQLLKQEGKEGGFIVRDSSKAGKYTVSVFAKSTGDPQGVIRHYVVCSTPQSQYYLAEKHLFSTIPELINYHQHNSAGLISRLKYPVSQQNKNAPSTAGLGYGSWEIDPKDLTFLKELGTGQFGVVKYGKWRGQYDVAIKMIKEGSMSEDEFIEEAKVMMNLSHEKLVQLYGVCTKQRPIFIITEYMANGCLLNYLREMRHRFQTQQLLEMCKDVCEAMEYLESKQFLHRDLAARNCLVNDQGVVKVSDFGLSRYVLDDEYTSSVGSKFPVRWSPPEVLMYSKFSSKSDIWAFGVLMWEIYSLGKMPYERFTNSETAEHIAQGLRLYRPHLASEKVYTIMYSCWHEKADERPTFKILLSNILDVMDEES

What is called DC50 is the concentration giving 50% degradation. Low values mean a more potent degrader, high ones a less potent degrader. As to `Cc1cc(-c2n[nH]c3ncc(-c4ccc(N5CCC(CN6CCN(c7ccc(N8CCC(=O)NC8=O)cn7)CC6)CC5)cc4)cc23)ccc1[C@@H](C)NC(=O)c1noc(C(C)(C)C)n1` [Example 165, (R)-5-(tert-butyl)-N-(1-(4-(5-(4-(4-((4-(5-(2,4-dioxotetrahydropyrimidin-1(2H)-yl)pyridin-2-yl)piperazin-1-yl)methyl)piperidin-1-yl)phenyl)-1H-pyrazolo[3,4-b]pyridin-3-yl)-2-methylphenyl)ethyl)-1,2,4-oxadiazole-3-carboxamide], the half-maximal degradation concentration (DC50) was determined as 2.7 nM.

`Cc1cc(-c2n[nH]c3ncc(-c4ccc(N5CCN(CC(F)(F)c6ccc(C7CCC(=O)NC7=O)cn6)CC5)cc4)cc23)ccc1[C@@H](C)NC(=O)c1nc(C(C)(C)C)no1` (stereo partly drawn) [Example 192, 3-(tert-butyl)-N-((1R)-1-(4-(5-(4-(4-(2-(5-(2,6-dioxopiperidin-3-yl)pyridin-2-yl)-2,2-difluoroethyl)piperazin-1-yl)phenyl)-1H-pyrazolo[3,4-b]pyridin-3-yl)-2-methylphenyl)ethyl)-1,2,4-oxadiazole-5-carboxamide] showed a half-maximal degradation concentration (DC50) of 4.03 nM.

Broadly, the Dmax is the greatest extent of degradation seen. Lower therefore signals shallow degradation. On to `Cc1cc(-c2n[nH]c3ncc(-c4ccc(N5CCN(CC6CCN(c7ccc(N8CCC(=O)NC8=O)cc7)CC6)CC5)cc4)cc23)ccc1CNC(=O)c1cnn(C(C)(C)C)c1` [Example 32, 1-(tert-butyl)-N-(4-(5-(4-(4-((1-(4-(2,4-dioxotetrahydropyrimidin-1(2H)-yl)phenyl)piperidin-4-yl)methyl)piperazin-1-yl)phenyl)-1H-pyrazolo[3,4-b]pyridin-3-yl)-2-methylbenzyl)-1H-pyrazole-4-carboxamide], for which the DC50 is 2.55 nM and the Dmax came to 93.6%.

For `CC(C)(C)c1noc(C(=O)NCc2ccc(-c3n[nH]c4ncc(-c5ccc(C6CCN(CCC7CCN(c8ccc(N9CCC(=O)NC9=O)cc8)CC7)CC6)cc5)cc34)cc2F)n1` [Example 12, 3-(tert-butyl)-N-(4-(5-(4-(1-(2-(1-(4-(2,4-dioxotetrahydropyrimidin-1(2H)-yl)phenyl)piperidin-4-yl)ethyl)piperidin-4-yl)phenyl)-1H-pyrazolo[3,4-b]pyridin-3-yl)-2-fluorobenzyl)-1,2,4-oxadiazole-5-carboxamide], the DC50 was 5.17 nM and the Dmax turned out to be 95.7%.

`Cc1cc(-c2n[nH]c3ncc(-c4ccc(N5CCN(CC6CCN(c7cc(F)ccc7N7CCC(=O)NC7=O)CC6)CC5)cc4)cc23)ccc1[C@@H](C)NC(=O)c1noc(C(C)(C)C)n1` [Example 90, (R)-5-(tert-butyl)-N-(1-(4-(5-(4-(4-((1-(2-(2,4-dioxotetrahydropyrimidin-1(2H)-yl)-5-fluorophenyl)piperidin-4-yl)methyl)piperazin-1-yl)phenyl)-1H-pyrazolo[3,4-b]pyridin-3-yl)-2-methylphenyl)ethyl)-1,2,4-oxadiazole-3-carboxamide] had a DC50 greater than 2000 nM.

On to `Cc1cc(-c2n[nH]c3ncc(-c4ccc(N5CCN(CCc6ccc(C7CCC(=O)NC7=O)c(C)n6)CC5)cn4)cc23)ccc1[C@@H](C)NC(=O)c1noc(C(C)(C)C)n1` (stereo partly drawn) [Example 163, 5-(tert-butyl)-N-((1R)-1-(4-(5-(5-(4-(2-(5-(2,6-dioxopiperidin-3-yl)-6-methylpyridin-2-yl)ethyl)piperazin-1-yl)pyridin-2-yl)-1H-pyrazolo[3,4-b]pyridin-3-yl)-2-methylphenyl)ethyl)-1,2,4-oxadiazole-3-carboxamide], for which half-maximal degradation (DC50) was put at 2.13 nM.

`COc1cc(OCCCN2CCN(c3ccc(-c4cnc5[nH]nc(-c6ccc([C@@H](C)NC(=O)c7nc(C(C)(C)C)no7)c(C)c6)c5c4)cc3)CC2)ccc1N1CCC(=O)NC1=O` [Example 118, (R)-3-(tert-butyl)-N-(1-(4-(5-(4-(4-(3-(4-(2,4-dioxotetrahydropyrimidin-1(2H)-yl)-3-methoxyphenoxy)propyl)piperazin-1-yl)phenyl)-1H-pyrazolo[3,4-b]pyridin-3-yl)-2-methylphenyl)ethyl)-1,2,4-oxadiazole-5-carboxamide] showed a 50% degradation concentration (DC50) of 8.07 nM.

In turn, `Cc1cc(-c2n[nH]c3ncc(-c4ccc(N5CCN(CCc6ccc(C7CCC(=O)NC7=O)cc6)CC5)cc4)cc23)ccc1CNC(=O)c1noc(C(C)(C)C)n1` (stereo not shown) [Example 107, 5-(tert-butyl)-N-(4-(5-(4-(4-(4-(2,6-dioxopiperidin-3-yl)phenethyl)piperazin-1-yl)phenyl)-1H-pyrazolo[3,4-b]pyridin-3-yl)-2-methylbenzyl)-1,2,4-oxadiazole-3-carboxamide] gave a 50% degradation concentration (DC50) of 1.89 nM.

`Cc1cc(-c2n[nH]c3ncc(-c4ccc(N5CCN(CCc6ccc(C7CCC(=O)NC7=O)c(C)n6)CC5)cc4)cc23)ccc1[C@@H](C)NC(=O)c1nc(C(C)(C)C)no1` (stereo partly drawn) [Example 156, 3-(tert-butyl)-N-((1R)-1-(4-(5-(4-(4-(2-(5-(2,6-dioxopiperidin-3-yl)-6-methylpyridin-2-yl)ethyl)piperazin-1-yl)phenyl)-1H-pyrazolo[3,4-b]pyridin-3-yl)-2-methylphenyl)ethyl)-1,2,4-oxadiazole-5-carboxamide] registered a DC50 of 2.14 nM.

`Cc1cc(-c2n[nH]c3ncc(-c4ccc(N5CCN(CCc6ccc([C@H]7CCC(=O)NC7=O)cc6)CC5)cc4)cc23)ccc1CNC(=O)c1cn(C(C)(C)C)nn1` [Example 150, (R)-1-(tert-butyl)-N-(4-(5-(4-(4-(4-(2,6-dioxopiperidin-3-yl)phenethyl)piperazin-1-yl)phenyl)-1H-pyrazolo[3,4-b]pyridin-3-yl)-2-methylbenzyl)-1H-1,2,3-triazole-4-carboxamide] gave a half-maximal degradation concentration (DC50) of 8.88 nM.

The compound `Cc1cc(-c2n[nH]c3ncc(-c4ccc(N5CCN(CCc6ccc(N7CC(=O)NC7=O)cc6)CC5)cc4)cc23)ccc1[C@@H](C)NC(=O)c1nc(C(C)(C)C)no1` [Example 217, (R)-3-(tert-butyl)-N-(1-(4-(5-(4-(4-(4-(2,4-dioxoimidazolidin-1-yl)phenethyl)piperazin-1-yl)phenyl)-1H-pyrazolo[3,4-b]pyridin-3-yl)-2-methylphenyl)ethyl)-1,2,4-oxadiazole-5-carboxamide] displayed a DC50 of 1960 nM.

Consider `Cc1cc(-c2n[nH]c3ncc(-c4ccc(N5CCCN(CC6CCN(c7ccc(N8CCC(=O)NC8=O)cc7)CC6)CC5)cc4)cc23)ccc1[C@@H](C)NC(=O)c1nc(C(C)(C)C)no1` [Example 202, (R)-3-(tert-butyl)-N-(1-(4-(5-(4-(4-((1-(4-(2,4-dioxotetrahydropyrimidin-1(2H)-yl)phenyl)piperidin-4-yl)methyl)-1,4-diazepan-1-yl)phenyl)-1H-pyrazolo[3,4-b]pyridin-3-yl)-2-methylphenyl)ethyl)-1,2,4-oxadiazole-5-carboxamide], for which the DC50 is 9.04 nM.

For `Cc1cc(-c2n[nH]c3ncc(-c4ccc(N5CCC(COc6ccc(OC7CCC(=O)NC7=O)cc6)CC5)cc4)cc23)ccc1[C@@H](C)NC(=O)c1noc(C(C)(C)C)n1` (stereo partly drawn) [Example 198, 5-(tert-butyl)-N-((1R)-1-(4-(5-(4-(4-((4-((2,6-dioxopiperidin-3-yl)oxy)phenoxy)methyl)piperidin-1-yl)phenyl)-1H-pyrazolo[3,4-b]pyridin-3-yl)-2-methylphenyl)ethyl)-1,2,4-oxadiazole-3-carboxamide], the half-maximal degradation concentration (DC50) came out at 91.4 nM.

In the case of `Cc1cc(-c2n[nH]c3ncc(-c4cccc(N5CCN(CC6CCN(c7ccc(N8CCC(=O)NC8=O)cc7)CC6)CC5)c4)cc23)ccc1[C@@H](C)NC(=O)c1noc(C(C)(C)C)n1` [Example 95, (R)-5-(tert-butyl)-N-(1-(4-(5-(3-(4-((1-(4-(2,4-dioxotetrahydropyrimidin-1(2H)-yl)phenyl)piperidin-4-yl)methyl)piperazin-1-yl)phenyl)-1H-pyrazolo[3,4-b]pyridin-3-yl)-2-methylphenyl)ethyl)-1,2,4-oxadiazole-3-carboxamide], the half-maximal degradation concentration (DC50) was 71.4 nM.

In turn, `Cc1c(-c2n[nH]c3ncc(-c4ccc(C5CCN(CCc6ccc(C7CCC(=O)NC7=O)cc6)CC5)cc4)cc23)ccc(CNC(=O)c2nc(C(C)(C)C)no2)c1F` (stereo not shown) [Example 19, 3-(tert-butyl)-N-(4-(5-(4-(1-(4-(2,6-dioxopiperidin-3-yl)phenethyl)piperidin-4-yl)phenyl)-1H-pyrazolo[3,4-b]pyridin-3-yl)-2-fluoro-3-methylbenzyl)-1,2,4-oxadiazole-5-carboxamide] gave a half-maximal degradation concentration (DC50) of 16.9 nM and a Dmax of 92.8%.

With `Cc1cc(-c2n[nH]c3ncc(-c4ccc(N5CCN(CCc6ccc(C7CCC(=O)NC7=O)cc6)CC5)cn4)cc23)ccc1CNC(=O)c1noc(C(C)(C)C)n1` (stereo not shown) [Example 103, 5-(tert-butyl)-N-(4-(5-(5-(4-(4-(2,6-dioxopiperidin-3-yl)phenethyl)piperazin-1-yl)pyridin-2-yl)-1H-pyrazolo[3,4-b]pyridin-3-yl)-2-methylbenzyl)-1,2,4-oxadiazole-3-carboxamide], the DC50 was 1.31 nM.

`Cc1cc(-c2n[nH]c3ncc(-c4ccc(N5CCN(CC6CCN(c7ccc(N8CCC(=O)NC8=O)cc7)CC6)CC5)cn4)cc23)ccc1CNC(=O)c1noc(C(C)(C)C)n1` [Example 66, 5-(tert-butyl)-N-(4-(5-(5-(4-((1-(4-(2,4-dioxotetrahydropyrimidin-1(2H)-yl)phenyl)piperidin-4-yl)methyl)piperazin-1-yl)pyridin-2-yl)-1H-pyrazolo[3,4-b]pyridin-3-yl)-2-methylbenzyl)-1,2,4-oxadiazole-3-carboxamide]: it took 5.32 nM to reach half-maximal degradation (DC50).

Regarding `COc1cc(N2CCC(CCN3CCC(c4ccc(-c5cnc6[nH]nc(-c7ccc(CNC(=O)c8nc(C(C)(C)C)no8)c(C)c7)c6c5)cc4)CC3)CC2)ccc1N1CCC(=O)NC1=O` [Example 28, 3-(tert-butyl)-N-(4-(5-(4-(1-(2-(1-(4-(2,4-dioxotetrahydropyrimidin-1(2H)-yl)-3-methoxyphenyl)piperidin-4-yl)ethyl)piperidin-4-yl)phenyl)-1H-pyrazolo[3,4-b]pyridin-3-yl)-2-methylbenzyl)-1,2,4-oxadiazole-5-carboxamide], the DC50 was 2.54 nM and the Dmax was found to be 97.1%.
